Data: US8846730B2, “Compounds as cannabinoid receptor ligands” (priority 2008, dated 2014)
Like-named read-outs stand apart in the source and are kept apart here.

Assays:
[1] = biological target: human CB2 receptors (Homo sapiens (Human), UniProt P34972); test: human CB2 radioligand binding assay ([3H]CP 55,940 competition); details: HEK293 membranes, 0.5 nM [3H]CP 55,940; read-out: human CB2 (Ki)
Experimental: (§1) The CB1 and CB2 radioligand binding assays described herein are utilized to ascertain the affinity of compounds of the present application for binding to CB2 relative to CB1 receptors.
HEK293 cells stably expressing human CB2 receptors were grown until a confluent monolayer was formed. Briefly, the cells were harvested and homogenized in TE buffer (50 mM Tris-HCl, 1 mM MgCl2, and 1 mM EDTA) using a polytron for 2×10 second bursts in the presence of protease inhibitors, followed by centrifugation at 45,000×g for 20 minutes. The final membrane pellet was re-homogenized in storage buffer (50 mM Tris-HCl, 1 mM MgCl2, and 1 mM EDTA and 10% sucrose) and frozen at −78° C. until used. Saturation binding reactions were initiated by the addition of membrane preparation (protein concentration of 5 μg/well for human CB2) into wells of a deep well plate containing [^3H]CP 55,940 (120 Ci/mmol, a nonselective CB agonist commercially available from Tocris) in assay buffer (50 mM Tris, 2.5 mM EDTA, 5 mM MgCl2, and 0.5 mg/mL fatty acid free BSA, pH 7.4). After 90 min incubation at 30° C., binding reaction was terminated by the addition of 300 μL/well of cold assay buffer followed by rapid vacuum filtration through a UniFilter-96 GF/C filter plates (pre-soaked in 1 mg/mL BSA for 2 hours). The bound activity was counted in a TopCount using Microscint-20. Saturation experiments were conducted with twelve concentrations of [^3H]CP 55,940 ranging from 0.01 to 8 nM. Competition experiments were conducted with 0.5 nM [^3H]CP 55,940 and five concentrations (0.01 nM to 10 μM) of displacing ligands. The addition of 10 μM unlabeled CP 55,940 (Tocris, Ellisville, Mo.) was used to assess nonspecific binding.

[2] = biological target: rat CB2 receptors (Rattus norvegicus (Rat), UniProt Q9QZN9); test: rat CB2 radioligand binding assay ([3H]CP 55,940 competition); details: HEK293 membranes, 0.5 nM [3H]CP 55,940
Experimental: as §1
HEK293 cells stably expressing rat CB2 receptors were grown until a confluent monolayer was formed. Briefly, the cells were harvested and homogenized in TE buffer (50 mM Tris-HCl, 1 mM MgCl2, and 1 mM EDTA) using a polytron for 2×10 second bursts in the presence of protease inhibitors, followed by centrifugation at 45,000×g for 20 minutes. The final membrane pellet was re-homogenized in storage buffer (50 mM Tris-HCl, 1 mM MgCl2, and 1 mM EDTA and 10% sucrose) and frozen at −78° C. until used. Saturation binding reactions were initiated by the addition of membrane preparation (protein concentration of 20 μg/well for rat CB2) into wells of a deep well plate containing [^3H]CP 55,940 (120 Ci/mmol, a nonselective CB agonist commercially available from Tocris) in assay buffer (50 mM Tris, 2.5 mM EDTA, 5 mM MgCl2, and 0.5 mg/mL fatty acid free BSA, pH 7.4). After 45 min incubation at 30° C., binding reaction was terminated by the addition of 300 μl/well of cold assay buffer followed by rapid vacuum filtration through a UniFilter-96 GF/C filter plates (pre-soaked in 1 mg/mL BSA for 2 hours). The bound activity was counted in a TopCount using Microscint-20. Saturation experiments were conducted with twelve concentrations of [^3H]CP 55,940 ranging from 0.01 to 8 nM. Competition experiments were conducted with 0.5 nM [^3H]CP 55,940 and five concentrations of displacing ligands selected from the range of 0.01 nM to 10 μM. The addition of 10 μM unlabeled CP 55,940 (Tocris, Ellisville, Mo.) was used to assess nonspecific binding.

[3] = biological target: rat CB2 receptors (HEK cells) (Rattus norvegicus (Rat), UniProt Q9QZN9); test: rat CB2 cyclase functional assay (HitHunter cAMP); type: cell-based
Experimental: (§2) The cyclase functional assays were performed using the HitHunter™ cAMP assay kit from DiscoveRx (Fremont, Calif.) according to vendor's protocol. Briefly, HEK cells expressing CB2 or CB1 receptors (rat or human) were detached using cell dissociation buffer (Invitrogen, Carlsbad, Calif.), dispersed and placed in suspension at 10,000 cells per well in 96 well plates prior to the assay. Cell suspensions were incubated at 37° C. for 20 min with variable concentrations of test ligands and or 10 μM CP 55,940-positive control in the presence of a fixed concentration of forskolin (18 μM for rat CB2 and 37 μM for rat CB1) in Dulbescco's phosphate-buffered saline (Invitrogen, Carlsbad, Calif.) supplemented with bovine serum albumin (0.01% final concentration). The reactions were terminated by the addition of lysis buffer and the luminescence was detected following the procedure according to the manufacturer's instructions. EC50 values were calculated using sigmoidal dose-response curve fitting from Prism (GraphPad).

[4] = biological target: rat CB1 receptors (HEK cells) (Rattus norvegicus (Rat), UniProt P20272); test: rat CB1 cyclase functional assay (HitHunter cAMP); type: cell-based
rat CB1 receptors (HEK cells), sequence (P20272 whole entry): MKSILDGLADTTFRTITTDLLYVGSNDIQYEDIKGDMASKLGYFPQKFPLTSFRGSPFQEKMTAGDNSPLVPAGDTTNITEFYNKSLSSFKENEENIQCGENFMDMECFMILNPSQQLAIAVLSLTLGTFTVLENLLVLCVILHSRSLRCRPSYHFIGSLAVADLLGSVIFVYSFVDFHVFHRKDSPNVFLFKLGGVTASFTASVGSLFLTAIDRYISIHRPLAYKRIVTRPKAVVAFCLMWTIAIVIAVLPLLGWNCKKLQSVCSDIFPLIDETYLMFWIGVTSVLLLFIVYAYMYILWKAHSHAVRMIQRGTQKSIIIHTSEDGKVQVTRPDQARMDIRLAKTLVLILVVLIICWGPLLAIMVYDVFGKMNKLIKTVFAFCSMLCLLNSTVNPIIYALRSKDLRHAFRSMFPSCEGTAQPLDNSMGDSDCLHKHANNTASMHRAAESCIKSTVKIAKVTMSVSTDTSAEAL
Experimental: as §2

[5] = HEK cells, forskolin 18 μM, read-out: rat CB2 cyclase (EC50)

human CB2 receptors, sequence (P34972 whole entry): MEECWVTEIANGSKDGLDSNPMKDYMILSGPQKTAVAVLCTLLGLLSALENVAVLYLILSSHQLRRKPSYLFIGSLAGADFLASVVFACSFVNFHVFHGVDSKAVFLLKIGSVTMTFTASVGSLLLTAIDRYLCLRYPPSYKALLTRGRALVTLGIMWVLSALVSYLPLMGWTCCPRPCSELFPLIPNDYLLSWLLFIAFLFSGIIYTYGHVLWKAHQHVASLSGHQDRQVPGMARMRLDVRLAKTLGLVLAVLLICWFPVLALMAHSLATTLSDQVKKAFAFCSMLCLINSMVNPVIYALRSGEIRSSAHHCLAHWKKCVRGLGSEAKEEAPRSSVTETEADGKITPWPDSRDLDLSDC

Structure (SMILES) | Ki [1] | Ki [2] | EC50 [3, 5] | EC50 [4] | EC50 [3] | EC50 ([4]; HEK cells, forskolin 37 μM, read-out: rCB1 cyclase (EC50))
CC(C)(C)c1cn(C[C@H]2CCCO2)/c(=N/C(=O)c2cc(C(F)(F)F)ccc2OCc2cnccn2)s1 [Example 19, N-[(2Z)-5-tert-butyl-3-[(2R)-tetrahydrofuran-2-ylmethyl]-1,3-thiazol-2(3H)-ylidene]-2-(pyrazin-2-ylmethoxy)-5-(trifluoromethyl)benzamide] | 5 nM | 5 nM | 0.41 nM | 3390 nM |  | 
CC(C)(C)c1cn(C[C@H]2CCCO2)/c(=N/C(=O)c2cc(C(F)(F)F)ccc2OCc2cccc[n+]2[O-])s1 [Example 20, N-[(2Z)-5-tert-butyl-3-[(2R)-tetrahydrofuran-2-ylmethyl]-1,3-thiazol-2(3H)-ylidene]-2-[(1-oxidopyridin-2-yl)methoxy]-5-(trifluoromethyl)benzamide] | 209 nM | 51 nM | 0.47 nM | 7980 nM |  | 
CC(C)(C)c1cn(C[C@H]2CCCO2)/c(=N/C(=O)c2cc(C(F)(F)F)ccc2OCc2cccnc2)s1 [Example 21, N-[(2Z)-5-tert-butyl-3-[(2R)-tetrahydrofuran-2-ylmethyl]-1,3-thiazol-2(3H)-ylidene]-2-(pyridin-3-ylmethoxy)-5-(trifluoromethyl)benzamide] | 13 nM | 10 nM |  | 6220 nM | 0.21 nM | 
CC(C)(C)c1cn(C[C@H]2CCCO2)/c(=N/C(=O)c2cc(C(F)(F)F)ccc2OC[C@H]2CCCO2)s1 [Example 22, N-[(2Z)-5-tert-butyl-3-[(2R)-tetrahydrofuran-2-ylmethyl]-1,3-thiazol-2(3H)-ylidene]-2-[(2R)-tetrahydrofuran-2-ylmethoxy]-5-(trifluoromethyl)benzamide] | 3 nM | 0.5 nM |  | 3230 nM | 0.07 nM | 
CC(C)(C)c1cn(C[C@H]2CCCO2)/c(=N/C(=O)c2cc(C(F)(F)F)ccc2OC[C@@H]2CCCO2)s1 [Example 23, N-[(2Z)-5-tert-butyl-3-[(2R)-tetrahydrofuran-2-ylmethyl]-1,3-thiazol-2(3H)-ylidene]-2-[(2S)-tetrahydrofuran-2-ylmethoxy]-5-(trifluoromethyl)benzamide] | 0.5 nM | 0.3 nM |  | 941 nM | 0.14 nM | 
CN1CCC[C@H]1COc1ccc(C(F)(F)F)cc1C(=O)/N=c1\sc(C(C)(C)C)cn1C[C@H]1CCCO1 [Example 24, N-[(2Z)-5-tert-butyl-3-[(2R)-tetrahydrofuran-2-ylmethyl]-1,3-thiazol-2(3H)-ylidene]-2-{[(2S)-1-methylpyrrolidin-2-yl]methoxy}-5-(trifluoromethyl)benzamide] | 4.6 nM | 3.4 nM | 0.09 nM | 1990 nM |  | 
CN1CCC[C@@H]1COc1ccc(C(F)(F)F)cc1C(=O)/N=c1\sc(C(C)(C)C)cn1C[C@H]1CCCO1 [Example 26, N-[(2Z)-5-tert-butyl-3-[(2R)-tetrahydrofuran-2-ylmethyl]-1,3-thiazol-2(3H)-ylidene]-2-{[(2R)-1-methylpyrrolidin-2-yl]methoxy}-5-(trifluoromethyl)benzamide] | 206 nM | 70 nM | 2.18 nM | 11200 nM |  | 
CN1CC[C@@H](COc2ccc(C(F)(F)F)cc2C(=O)/N=c2\sc(C(C)(C)C)cn2C[C@H]2CCCO2)C1 [Example 30, N-[(2Z)-5-tert-butyl-3-[(2R)-tetrahydrofuran-2-ylmethyl]-1,3-thiazol-2(3H)-ylidene]-2-{[(3R)-1-methylpyrrolidin-3-yl]methoxy}-5-(trifluoromethyl)benzamide] | 141 nM | 29 nM |  | 12100 nM | 4.98 nM | 
CN1CC[C@H](COc2ccc(C(F)(F)F)cc2C(=O)/N=c2\sc(C(C)(C)C)cn2C[C@H]2CCCO2)C1 [Example 31, N-[(2Z)-5-tert-butyl-3-[(2R)-tetrahydrofuran-2-ylmethyl]-1,3-thiazol-2(3H)-ylidene]-2-{[(3 S)-1-methylpyrrolidin-3-yl]methoxy}-5-(trifluoromethyl)benzamide] | 92 nM | 84 nM |  | 10700 nM | 3.58 nM | 
CC(C)(C)c1cn(C[C@@H]2CCCO2)/c(=N/C(=O)c2cc(C(F)(F)F)ccc2OC[C@H](N)CO)s1 [Example 33, 2-{[(2R)-2-amino-3-hydroxypropyl]oxy}-N-[(2Z)-5-tert-butyl-3-[(2S)-tetrahydrofuran-2-ylmethyl]-1,3-thiazol-2(3H)-ylidene]-5-(trifluoromethyl)benzamide] | 7.4 nM | 2.8 nM | 0.18 nM | 1170 nM |  | 
CN1CCN(C)C(COc2ccc(C(F)(F)F)cc2C(=O)/N=c2\sc(C(C)(C)C)cn2C[C@@H]2CCCO2)C1 (stereo partly drawn) [Example 34, N-[(2Z)-5-tert-butyl-3-[(25)-tetrahydrofuran-2-ylmethyl]-1,3-thiazol-2(3H)-ylidene]-2-[(1,4-dimethylpiperazin-2-yl)methoxy]-5-(trifluoromethyl)benzamide] | 25 nM | 13 nM | 0.3 nM |  |  | 4090 nM
CN(CCOc1ccc(C(F)(F)F)cc1C(=O)/N=c1\sc(C(C)(C)C)cn1C[C@H]1CCCO1)c1ccccc1 [Example 35, N-[(2Z)-5-tert-butyl-3-[(2R)-tetrahydrofuran-2-ylmethyl]-1,3-thiazol-2(3H)-ylidene]-2-{2-[methyl(phenyl)amino]ethoxy}-5-(trifluoromethyl)benzamide] | 14 nM | 6.5 nM | 6.31 nM | 9490 nM |  | 
CC(C)(C)c1cn(C[C@H]2CCCO2)/c(=N/C(=O)c2cc(C(F)(F)F)ccc2OCc2ccccc2)s1 [Example 36, 2-(benzyloxy)-N-[(2Z)-5-tert-butyl-3-[(2R)-tetrahydrofuran-2-ylmethyl]-1,3-thiazol-2(3H)-ylidene]-5-(trifluoromethyl)benzamide] | 6 nM | 2.9 nM | 1.47 nM | 6560 nM |  | 
CC(C)(C)c1cn(C[C@H]2CCCO2)/c(=N/C(=O)c2cc(C(F)(F)F)ccc2OCc2cnco2)s1 [Example 37, N-[(2Z)-5-tert-butyl-3-[(2R)-tetrahydrofuran-2-ylmethyl]-1,3-thiazol-2(3H)-ylidene]-2-(1,3-oxazol-5-ylmethoxy)-5-(trifluoromethyl)benzamide] | 26 nM | 9 nM |  | 7550 nM | 0.5 nM | 
CC(C)(C)c1cn(C[C@H]2CCCO2)/c(=N/C(=O)c2cc(C(F)(F)F)ccc2OCc2nccs2)s1 [Example 38, N-[(2Z)-5-tert-butyl-3-[(2R)-tetrahydrofuran-2-ylmethyl]-1,3-thiazol-2(3H)-ylidene]-2-(1,3-thiazol-2-ylmethoxy)-5-(trifluoromethyl)benzamide] | 5.5 nM | 2.5 nM |  | 2000 nM | 0.33 nM | 
